Log p and chromatographic logP data for 72 compounds are collected here from patent US8981111B2 (priority 2008, dated 2015).

The nature of one data set: log P (HPLC/MS data of the preparation examples). To be noted: LC-MS, method [b]: pH 2.7 with 0.1% formic acid in water and acetonitrile, linear gradient 10% to 95% acetonitrile.
As for `Cc1cccc(C(=NOCc2cccc(N3C(=O)c4ccccc4C3=O)n2)c2ncnn2C)c1` [Example 5], the log p was 3.04^[b]. Still for that read-out and setting: under `Cc1ccccc1C(=NOCc1cccc(N)n1)c1ncnn1C` [Example 6] stands 0.96^[b].

With `Cc1cccc(C(=NOCc2cccc(N)n2)c2ncnn2C)c1` [Example 8], the log p is 1.27^[b]. Still for that read-out and setting: under `Cc1ccccc1C(=NOCc1cccc(N2C(=O)c3ccccc3C2=O)n1)c1ncnn1C` [Example 9] stands 2.78^[b]; under `Cc1ccc(C(=NOCc2cccc(N3C(=O)c4ccccc4C3=O)n2)c2ncnn2C)cc1` [Example 10], 2.92^[b]. On the same count and under the same terms, under `Cn1ccnc1C(=NOCc1cccc(N)n1)c1ccccc1` [Example 11] stands 0.36^[b]; under `Cn1ccnc1C(=NOCc1nccc(NC(=O)C(C)(C)C)n1)c1ccccc1` [Example 12], 1.77^[b]; under `CCCCCCC(=O)Nc1ccnc(CON=C(c2ccccc2)c2nccn2C)n1` [Example 14], 2.39^[b]. Same read-out and setting: for `CC(C)CC(=O)Nc1ccnc(CON=C(c2ccccc2)c2nccn2C)n1` [Example 15] the value was 1.76^[b].

`CCCCCC(=O)Nc1ccnc(CON=C(c2ccccc2)c2nccn2C)n1` [Example 16]: the log p is 2.1^[b].

For the compound `Cc1ccc(C(=NOCc2cccc(NC(=O)C3CC3)n2)c2ncnn2C)cc1` [Example 17], the log p is 2.73^[b]. Still for that read-out and setting: under `CCCCCC(=O)Nc1cccc(CON=C(c2ccc(C)cc2)c2ncnn2C)n1` [Example 18] stands 3.71^[b]; under `Cc1ccc(C(=NOCc2cccc(NC(=O)C(C)(C)C)n2)c2ncnn2C)cc1` [Example 19], 3.31^[b]; under `Cc1cccc(C(=NOCc2cccc(NC(=O)C3CC3)n2)c2ncnn2C)c1` [Example 20], 2.73^[b]. On the same count and under the same terms, for `CCCCCC(=O)Nc1cccc(CON=C(c2cccc(C)c2)c2ncnn2C)n1` [Example 21] the value was 3.71^[b]. The same measure, in the same setting: for `Cc1cccc(C(=NOCc2cccc(NC(=O)C(C)(C)C)n2)c2ncnn2C)c1` [Example 22] the value was 3.31^[b]; for `Cc1ccccc1C(=NOCc1cccc(NC(=O)C2CC2)n1)c1ncnn1C` [Example 23], 2.48^[b]; for `CCCCCC(=O)Nc1cccc(CON=C(c2ccccc2C)c2ncnn2C)n1` [Example 24], 3.46^[b]. With `Cc1ccccc1C(=NOCc1cccc(NC(=O)C(C)(C)C)n1)c1ncnn1C` [Example 25], the log p was 3.06^[b]. Still for that read-out and setting: for `Cn1ncnc1C(=NOCc1cccc(NC(=O)C(C)(C)C)n1)c1ccccc1` [Example 26] the value was 2.98^[b].

As for `Cn1ncnc1C(=NOCc1cccc(NC(=O)C2CC2)n1)c1ccccc1` [Example 27], the log p was 2.41^[b].

Turning to `Cn1ncnc1C(=NOCc1cccc(NC(=O)Cc2ccccc2)n1)c1ccccc1` [Example 29], the log p is 3.06^[b].

In the case of `Cc1ccccc1C(=NOCc1cccc(NC(=O)Cc2ccccc2)n1)c1ncnn1C` [Example 30], the log p was 3.11^[b]. Still for that read-out and setting: under `Cc1cccc(C(=NOCc2cccc(NC(=O)Cc3ccccc3)n2)c2ncnn2C)c1` [Example 31] stands 3.35^[b]; under `Cn1ccnc1C(=NOCc1cccc(NC(=O)Cc2ccccc2)n1)c1ccccc1` [Example 32], 2^[b]; under `CCCCCC(=O)Nc1cccc(CON=C(c2ccccc2)c2nccn2C)n1` [Example 33], 2.23^[b]. Still for that read-out and setting: under `CCCCCOC(=O)Nc1cccc(CON=C(c2ccccc2)c2ncnn2C)n1` [Example 35] stands 3.96^[b]; under `CC(C)CC(=O)Nc1cccc(CON=C(c2ccccc2)c2nccn2C)n1` [Example 36], 1.89^[b]; under `CCCCCOC(=O)Nc1cccc(CON=C(c2ccccc2)c2nccn2C)n1` [Example 37], 2.6^[b]. Still for that read-out and setting: for `CCCCCC(=O)Nc1ccnc(CON=C(c2ccc(C)cc2)c2ncnn2C)n1` [Example 38] the value was 3.42^[b]; for `Cc1ccc(C(=NOCc2nccc(NC(=O)C(C)(C)C)n2)c2ncnn2C)cc1` [Example 39], 3.02^[b]. Consider `Cc1ccc(C(=NOCc2nccc(NC(=O)C3CC3)n2)c2ncnn2C)cc1` [Example 40], for which the log p was 2.46^[b]. Still for that read-out and setting: under `CCCCCOC(=O)Nc1ccnc(CON=C(c2ccc(C)cc2)c2ncnn2C)n1` [Example 41] stands 3.76^[b]; under `COC(=O)CCCC(=O)Nc1cccc(CON=C(c2ccc(C)cc2)c2ncnn2C)n1` [Example 42], 2.68^[b]. For `COC(=O)CCCC(=O)Nc1cccc(CON=C(c2ccccc2)c2ncnn2C)n1` [Example 43], the log p was 2.39^[b]. On the same count and under the same terms, under `CCCCCOC(=O)Nc1cccc(CON=C(c2ccc(C)cc2)c2ncnn2C)n1` [Example 44] stands 4.31^[b]. As for `CCCCCOC(=O)Nc1cccc(CON=C(c2ccccc2C)c2ncnn2C)n1` [Example 45], the log p was 4.06^[b].

As to `Cn1ncnc1C(=NOCc1ncc(C(F)(F)F)cc1Cl)c1ccccc1` [Example 47], the log p is 3.44^[b]. On the same count and under the same terms, for `CCCCCC(=O)Nc1cccc(CON=C(c2cccc(C)c2)c2ncnn2C)n1` [Example 48] the value was 3.55^[b]; for `Cn1ncnc1C(=NOCc1ccccn1)c1ccccc1` [Example 50], 1.51^[b]. On the same count and under the same terms, under `Cn1ncnc1C(=NOCc1ccc2ccccc2n1)c1ccccc1` [Example 51] stands 2.51^[b]; under `CCOC(=O)Nc1ccnc(CON=C(c2ccccc2)c2nccn2C)n1` [Example 52], 1.47^[b]; under `COCC(=O)Nc1ccnc(CON=C(c2ccccc2)c2nccn2C)n1` [Example 53], 1.2^[b]. The same measure, in the same setting: under `Cn1ccnc1C(=NOCc1nccc(NC(=O)COCc2ccccc2)n1)c1ccccc1` [Example 54] stands 2.04^[b]; under `CCCCCOC(=O)Nc1ccnc(CON=C(c2ccccc2)c2nccn2C)n1` [Example 55], 2.28^[b]. Turning to `COCCOCC(=O)Nc1ccnc(CON=C(c2ccccc2)c2nccn2C)n1` [Example 56], the log p is 1.34^[b].

For the compound `C=CCOC(=O)Nc1ccnc(CON=C(c2ccccc2)c2nccn2C)n1` [Example 57], the log p was 1.62^[b]. Still for that read-out and setting: for `CCCC(=O)Nc1ccnc(CON=C(c2ccccc2)c2nccn2C)n1` [Example 58] the value was 1.68^[b]; for `CCCCC(=O)Nc1ccnc(CON=C(c2ccccc2)c2nccn2C)n1` [Example 59], 1.95^[b]. Same read-out and setting: for `Cn1nncc1C(=NOCc1cccc(N)n1)c1ccccc1` [Example 60] the value was 1.11^[b]; for `CC(=O)Nc1ccnc(CON=C(c2ccccc2)c2nccn2C)n1` [Example 62], 1.13^[b]; for `CCC(=O)Nc1ccnc(CON=C(c2ccccc2)c2nccn2C)n1` [Example 63], 1.38^[b]. On the same count and under the same terms, under `Cn1ccnc1C(=NOCc1nccc(NC(=O)CCc2ccccc2)n1)c1ccccc1` [Example 64] stands 2.21^[b].

For the compound `CCCCCC(=O)Nc1cccc(CON=C(c2ccccc2)c2cnnn2C)n1` [Example 65], the log p is 3.52^[b]. Still for that read-out and setting: under `Cn1nncc1C(=NOCc1cccc(NC(=O)C(C)(C)C)n1)c1ccccc1` [Example 66] stands 3.11^[b]; under `Cn1nncc1C(=NOCc1cccc(NC(=O)C2CC2)n1)c1ccccc1` [Example 67], 2.55^[b]. The same measure, in the same setting: under `Cn1nncc1C(=NOCc1cccc(NC(=O)Cc2ccccc2)n1)c1ccccc1` [Example 68] stands 3.19^[b].

In the case of `CCCCCOC(=O)Nc1cccc(CON=C(c2ccccc2)c2cnnn2C)n1` [Example 69], the log p is 2.46^[b]. On the same count and under the same terms, under `Cn1nncc1C(=NOCc1nccc(N)n1)c1ccccc1` [Example 70] stands 0.96^[b].

Take `CCCCCC(=O)Nc1ccnc(CON=C(c2ccccc2)c2cnnn2C)n1` [Example 71]: the log p is 3.23^[b].

In the case of `CCCCS(=O)(=O)Nc1cccc(CON=C(c2ccccc2)c2ncnn2C)n1` [Example 72], the log p is 4.21^[b]. On the same count and under the same terms, for `CCCCS(=O)(=O)N(c1cccc(CON=C(c2ccccc2)c2ncnn2C)n1)S(=O)(=O)CCCC` [Example 73] the value was 2.73^[b]; for `CCCCS(=O)(=O)Nc1cccc(CON=C(c2ccc(C)cc2)c2ncnn2C)n1` [Example 74], 3.04^[b].

For the compound `CCCCS(=O)(=O)Nc1cccc(CON=C(c2cccc(C)c2)c2ncnn2C)n1` [Example 75], the log p is 3.04^[b]. Same read-out and setting: for `CCCCS(=O)(=O)Nc1cccc(CON=C(c2ccccc2)c2cnnn2C)n1` [Example 76] the value was 2.86^[b]; for `Cn1nncc1C(=NOCc1nccc(NC(=O)C(C)(C)C)n1)c1ccccc1` [Example 77], 2.77^[b]; for `CCCCS(=O)(=O)N(c1cccc(CON=C(c2ccc(C)cc2)c2ncnn2C)n1)S(=O)(=O)CCCC` [Example 78], 4.51^[b]. As for `CCCCS(=O)(=O)N(c1cccc(CON=C(c2cccc(C)c2)c2ncnn2C)n1)S(=O)(=O)CCCC` [Example 79], the log p is 4.49^[b].

As for `CCCCS(=O)(=O)N(c1cccc(CON=C(c2ccccc2)c2cnnn2C)n1)S(=O)(=O)CCCC` [Example 80], the log p is 4.26^[b].

As to `Cn1nncc1C(=NOCc1nccc(NC(=O)Cc2ccccc2)n1)c1ccccc1` [Example 81], the log p was 2.84^[b].

The same data set, now with this note: LC-MS, method [c]: pH 7.8 with 0.001 molar ammonium hydrogen carbonate solution in water, linear gradient 10% to 95% acetonitrile.
As to `Cn1ccnc1C(=NOCc1cccc(N)n1)c1ccccc1` [Example 11], the log p is 1.89^[c];.

The data set is the same for the next values; noted with them: reversed phase HPLC column, pH 2.7.
For the compound `Cn1ncnc1C(=NOCc1cccc(N2C(=O)c3ccccc3C2=O)n1)c1ccccc1` [Example 13, 2-{6-[({[(1-methyl-1H-1,2,4-triazol-5-yl)(phenyl)methylene]amino}oxy)methyl]pyridin-2-yl}-1H-isoindole-1,3(2H)-dione], the chromatographic logP was found to be 2.76.

Compound `CCCCCC(=O)Nc1cccc(CON=C(c2ccccc2)c2ncnn2C)n1` [Example 28, N-{6-[({[(1-methyl-1H-1,2,4-triazol-5-yl)(phenyl)methylene]amino}oxy)methyl]pyridin-2-yl}hexanamide] gave a chromatographic logP of 3.39.

A word on the chromatographic logP: it is lipophilicity estimated from chromatographic retention. Read a high chromatographic logP as higher lipophilicity.
